The experiment has as its target DYRK1A (Homo sapiens, UniProt Q13627). Kind of experiment: Affinity testing of compounds with DYRK1A (KD). It is filed as binding. The conditions noted are these: DYRK1A affinity key classes.

Molecules are shown by their SMILES. pKd: −log10 of the molar value.

What is called pKd is −log10 of the Kd, conventionally taken in molar units.

`c1cc(-c2ccc3ncc(-c4ccc(N5CCNCC5)nc4)n3n2)ccn1` [Compound 76, 3-(6-(piperazin-1-yl)pyridin-3-yl)-6-(pyridin-4-yl)imidazo[1,2-b]pyridazine] had a pKd of 7.00 to 9.30.

Take `O=C(O)c1ccc(-n2cnc3ccc(-c4ccncc4)c(F)c32)cc1` [Compound 6, 4-(7-fluoro-6-(pyridin-4-yl)-1H-benzo[d]imidazol-1-yl)benzoic acid]: the pKd is 6.30 to 7.00. As for `Cc1nc2ccc(-c3ccnc4[nH]ccc34)nc2n1-c1ccc(N2CCOCC2)c(F)c1` [Compound 143, 4-(2-fluoro-4-(2-methyl-5-(1H-pyrrolo[2,3-b]pyridin-4-yl)-3H-imidazo[4,5-b]pyridin-3-yl)phenyl)morpholine], the figure is 7.00 to 9.30. `Fc1cc(-c2cnc3ccc(-c4ccncc4)nn23)ccc1CN1CCOCC1` [Compound 78, 4-(2-fluoro-4-(6-(pyridin-4-yl)imidazo[1,2-b]pyridazin-3-yl)benzyl)morpholine]: the pKd is 6.30 to 7.00.

Molecule `Cc1nc2ccc(-c3ccncc3)nc2n1-c1ccc(CN2[C@H](C)COC[C@@H]2C)cc1` [Compound 117, (3S,5R)-3,5-dimethyl-4-(4-(2-methyl-5-(pyridin-4-yl)-3H-imidazo[4,5-b]pyridin-3-yl)benzyl)morpholine] gave a pKd of 6.30 to 7.00. In the case of `Cc1nc2ccc(-c3ccnc(N)c3)nc2n1-c1ccc(CN2CCCCC2)cc1` [Compound 159, 4-(2-methyl-3-(4-(piperidin-1-ylmethyl)phenyl)-3H-imidazo[4,5-b]pyridin-5-yl)pyridin-2-amine], the pKd is 7.00 to 9.30. Molecule `COc1ccc(-n2c(C)nc3ccc(-c4ccncc4)nc32)cc1` [Compound 43, 3-(4-methoxyphenyl)-2-methyl-5-(pyridin-4-yl)-3H-imidazo[4,5-b]pyridine] showed a pKd of 7.00 to 9.30. As for `Cc1nc2ccc(-c3ccncc3)nc2n1-c1ccc(N2CCOCC2)cc1` [Compound 134, 4-(4-(2-methyl-5-(pyridin-4-yl)-3H-imidazo[4,5-b]pyridin-3-yl)phenyl)morpholine], the figure is 6.30 to 7.00; as for `Cc1nc2ccc(-c3ccncc3)nc2n1-c1ccc(CN2CCOCC2)cc1` [Compound 28, 4-(4-(2-methyl-5-(pyridin-4-yl)-3H-imidazo[4,5-b]pyridin-3-yl)benzyl)morpholine], 7.00 to 9.30; as for `c1cc(-c2cn3cnnc3cn2)ccn1` [Compound 68, 6-(pyridin-4-yl)-[1,2,4]triazolo[4,3-a]pyrazine], 5.00 to 6.30. For `CN1CCN(c2ccc(-c3cnc4ccc(-c5ccncc5)nn34)cn2)CC1` [Compound 87, 3-(6-(4-methylpiperazin-1-yl)pyridin-3-yl)-6-(pyridin-4-yl)imidazo[1,2-b]pyridazine] the value was 7.00 to 9.30. `Cc1cc(-n2c(C)nc3ccc(-c4ccnc(N)c4)nc32)cnc1N1CCOCC1` [Compound 162, 4-(2-methyl-3-(5-methyl-6-morpholinopyridin-3-yl)-3H-imidazo[4,5-b]pyridin-5-yl)pyridin-2-amine] gave a pKd of 7.00 to 9.30. For the molecule `N#Cc1ccnc(-n2cnc3ccc(-c4ccncc4)c(F)c32)c1` [Compound 11, 2-(7-fluoro-6-(pyridin-4-yl)-1H-benzo[d]imidazol-1-yl)isonicotinonitrile], the pKd is 6.30 to 7.00.

In the case of `Cc1c2cc(-n3c(C)nc4ccc(-c5ccncc5)nc43)ccc2nn1C` [Compound 139, 3-(2,3-dimethyl-2H-indazol-5-yl)-2-methyl-5-(pyridin-4-yl)-3H-imidazo[4,5-b]pyridine], the pKd is 7.00 to 9.30.

With `c1cc(-c2ccc3ncc(-c4ccc5[nH]ccc5c4)n3n2)ccn1` [Compound 77, 3-(1H-indol-5-yl)-6-(pyridin-4-yl)imidazo[1,2-b]pyridazine], the pKd is 7.00 to 9.30.

For `Nc1cc(-c2ccn3ncc(-c4ccc(CN5CCOCC5)s4)c3n2)ccn1` [Compound 114, 4-(3-(5-(morpholinomethyl)thiophen-2-yl)pyrazolo[1,5-a]pyrimidin-5-yl)pyridin-2-amine], the pKd was 6.30 to 7.00. In the case of `FC1(F)CN(Cc2ccc(-c3cnc4ccc(-c5ccncc5)nn34)cc2)C1` [Compound 102, 3-(4-((3,3-difluoroazetidin-1-yl)methyl)phenyl)-6-(pyridin-4-yl)imidazo[1,2-b]pyridazine], the pKd was 6.30 to 7.00.

These data come from US12054483B2, “Small molecule inhibitors of DYRK/CLK and uses thereof” (Arizona Board of Regents on Behalf of the University of …, priority 2018, dated 2024).
